The values below come from the METLIN SMRT retention time set (Domingo-Almenara et al. 2019).

This data set is described as follows: gradient 5% acetonitrile 3 min, to 50% in 2 min, to 85% in 15 min, held 3 min, 100 µL/min. The note with it: column: Zorbax Extend-C18 2.1 x 50 mm; eluents: water / acetonitrile, 0.1% formic acid. The method in brief:
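Data were gathered over 3 months by HPLC coupled to a quadrupole time-of-flight mass spectrometer, operated in positive and negative ionization mode. Mixtures of ~100 pure standards ran on a Zorbax Extend-C18 column (2.1 × 50 mm, 1.8 μm) at 100 μL/min, with water and acetonitrile each containing 0.1% formic acid and dead and dwell volumes of 40 μL and 900 μL. Retention time was read from adduct peaks picked by computer and checked manually.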
The compound `O=C(OCc1ccc([N+](=O)[O-])cc1)c1ccc(S(=O)(=O)NCC2CCCO2)cc1` (stereo not drawn) showed an RP-LC retention time of 870 s.

With `O=S(=O)(Nc1ccc(F)cc1)c1cccnc1Nc1ccc(Br)cc1`, the RP-LC retention time amounted to 1150 s.

Take `COc1ccccc1C(=O)N1CCCC1c1cc(C(C)C)no1` (stereo not drawn): the RP-LC retention time amounted to 831 s.

`O=C(Nc1ccc2c(c1)OCCO2)C1CCCN(S(=O)(=O)Cc2ccc(F)cc2)C1` (stereo not drawn) yielded an RP-LC retention time of 905 s.

With `O=C(Cn1cccc1-c1nc(-c2ccc(Cl)cc2)cs1)NCCCN1CCCC1`, the RP-LC retention time worked out at 826 s.

For `O=C(N[C@@H](COc1ccc2[nH]c(=O)[nH]c2c1)c1ccccc1)c1cccn(Cc2ccc(F)c(F)c2)c1=O`, the RP-LC retention time amounted to 893 s.

`CC(=O)Oc1ccccc1C1=NN(C(C)=O)C(c2cccc(Br)c2)O1` (stereo not drawn) registered an RP-LC retention time of 1040 s.

As to `COc1ccc(-c2nc3ncccn3c2Nc2ccccc2)cc1`, the RP-LC retention time was 700 s.

The compound `COc1nn(C)cc1C(=O)Nc1ccc(C(=O)Nc2cccc(-c3csc(C)n3)c2)cc1` gave an RP-LC retention time of 748 s.

`COc1ccc(Cl)cc1-c1nc(-c2ccc3oc(C)nc3c2)no1`: the RP-LC retention time was 1060 s.

Consider `CCn1ncc(NC(=O)COc2cccc(C)c2C)c(N2CCCCC2)c1=O`, for which the RP-LC retention time is 1230 s.

`COc1ccc(CNC(=O)c2nsc(C(=O)NCCc3ccc(OC)c(OC)c3)c2N)cc1` gave an RP-LC retention time of 922 s.

`C=CCn1c(=O)c2ccccc2n(Cc2nc(-c3ccc4c(c3)OCO4)no2)c1=O`: the RP-LC retention time turned out to be 998 s.

In the case of `Cc1ccc(NC(=O)CN2C(=O)CCc3cc(Br)ccc32)cc1`, the RP-LC retention time worked out at 931 s.

Compound `Cc1ccc(S(=O)(=O)N2CCC3(CC2)CCC(O)(CN2CCCC2)CC3)c(C)c1` showed an RP-LC retention time of 602 s.

In the case of `Cc1cc(C)cc(C(=O)Nc2cccn3nc(C4CCC4)nc23)c1`, the RP-LC retention time was 1070 s.

In the case of `COc1cccc(C(=O)CSc2ccc(NC(=O)C3CC3)nn2)c1`, the RP-LC retention time was determined as 797 s.

In turn, `CCNC(=O)c1cc(-c2ccccc2)n(C)c1C` returned an RP-LC retention time of 805 s.

Consider `Cc1nn(-c2ccc(-c3ccccc3)nn2)c(C)c1S(=O)(=O)N1CCOCC1`, for which the RP-LC retention time came out at 887 s.

Turning to `COc1ccc(-c2nc(-c3ccc4c(c3)oc(=O)n4C(C)C)no2)c(OC)c1`, the RP-LC retention time turned out to be 1080 s.

`CCc1nc(-c2csc(S(=O)(=O)N3CCCC(C(=O)Nc4cccc(C)c4C)C3)c2)no1` (stereo not drawn): the RP-LC retention time came out at 1060 s.

`CC(=O)Nc1ccc(CCc2nc3ccc(C(=O)NCCC4=CCCCC4)cc3[nH]2)cc1` returned an RP-LC retention time of 669 s.

In turn, `CCn1cc(CCNC(=O)Nc2cccc(C)c2C)c2cccnc21` yielded an RP-LC retention time of 720 s.

Regarding `CC(C)c1ccc(NC(=O)Cn2cnc3c(sc4nc(-c5ccccc5)ccc43)c2=O)cc1`, the RP-LC retention time stood at 1180 s.

Regarding `Cc1cc(C)c(S(=O)(=O)N2CCC(C)(C(=O)NCc3ccc4c(c3)OCO4)CC2)cc1C`, the RP-LC retention time worked out at 1010 s.

Take `Cc1ccc2c(Nc3ccccc3C)c(-c3nc(C)no3)cnc2n1`: the RP-LC retention time worked out at 743 s.

In turn, `CC(C)OCCCNC(=O)C1CCN(S(=O)(=O)c2ccc(-c3noc(C4CC4)n3)cc2)CC1` displayed an RP-LC retention time of 890 s.

With `Cc1ccc(-c2ncc3c(=O)n(CC(=O)N4CCCC4)c(=O)n(C)c3n2)cc1`, the RP-LC retention time stood at 888 s.

`COc1ccc(-c2noc(C3CCCN3C(=O)Nc3cccc(Cl)c3)n2)cc1` (stereo not drawn): the RP-LC retention time amounted to 1020 s.

`COC(=O)C1=CN(c2ccc(C)c(F)c2)c2cc(F)ccc2S1(=O)=O` returned an RP-LC retention time of 920 s.

`CC(=O)N1c2ccc(S(=O)(=O)N3CCCCCC3)cc2CC1C(=O)NCc1ccc(Cl)cc1` (stereo not drawn) displayed an RP-LC retention time of 951 s.

`Cc1cc(Cl)ccc1NS(=O)(=O)c1cc2c(s1)CCN(C(=O)C1CC1)C2` showed an RP-LC retention time of 923 s.

Take `Cc1c(C(=O)NCCOc2ccc3c(c2)OCO3)cccc1[N+](=O)[O-]`: the RP-LC retention time is 778 s.

As to `CC(C)CC(=O)N1CCC(COc2ccc(C(=O)NC(C)C)cc2)CC1`, the RP-LC retention time was 801 s.

As for `Cc1cc(C)c(C)c(S(=O)(=O)NCC(=O)NCc2ccco2)c1C`, the RP-LC retention time was 573 s.

Compound `CCCc1noc(-c2ccc3nnc(CC(=O)Nc4ccc(C)cc4F)n3c2)n1` gave an RP-LC retention time of 940 s.

`Cc1ccc2nc(-c3ccccc3O)c(Nc3ccccc3C)n2c1`: the RP-LC retention time was 751 s.

Compound `COc1cccc(C2Cn3nnc(-c4nc(-c5ccccc5)no4)c3CO2)c1` (stereo not drawn) showed an RP-LC retention time of 1130 s.

For `CCOc1cc(C)c(C)cc1S(=O)(=O)n1cc(C)nc1CC`, the RP-LC retention time was determined as 712 s.

Compound `CCOC(=O)N1CCN(C(=O)Cc2csc(NC(=O)c3cnccn3)n2)CC1` registered an RP-LC retention time of 598 s.

Turning to `CCOc1ccc(CC(=O)N2CCN(Cc3nc(C)cs3)CC2)cc1`, the RP-LC retention time is 586 s.

Consider `CN1C(=O)c2cc(C(=O)NCCc3ccccc3)nn2CC1(C)C(=O)NC1CCCCC1` (stereo not drawn), for which the RP-LC retention time is 812 s.

`CS(=O)(=O)N1CCN(C(=O)C2CCCN(c3ccc(-c4ccc(F)cc4)nn3)C2)CC1` (stereo not drawn) gave an RP-LC retention time of 611 s.

Regarding `CC1CC=C(O)C12OCC(C)(C)CO2` (stereo not drawn), the RP-LC retention time was 736 s.

As to `CCCn1ccc2sc(C)c(C(=O)N3CCN(c4ccccc4F)CC3)c2c1=O`, the RP-LC retention time was found to be 916 s.

Compound `Cc1cc(NC(=O)CSc2nnc(-c3c(C)nc4sccn34)n2C)no1` gave an RP-LC retention time of 588 s.

In the case of `Cc1ccc(C)c(Cn2ccn3nc(-c4ccccc4)c(CO)c3c2=O)c1`, the RP-LC retention time stood at 1030 s.

As to `CN1C(=O)c2ccccc2Oc2ccc(C(=O)NCc3ccccc3Cl)cc21`, the RP-LC retention time turned out to be 948 s.

Compound `CCOc1ccccc1NS(=O)(=O)c1ccccc1-c1nc(-c2cccc(F)c2)no1` displayed an RP-LC retention time of 1280 s.

Regarding `Cc1ccc(CN2CCn3c(nn(CC4CC4)c3=O)C2)nc1`, the RP-LC retention time stood at 561 s.

`Cn1ccc2c(cc(C(=O)NCc3ccc4c(c3)OCO4)n2C)c1=O` had an RP-LC retention time of 660 s.

Turning to `COc1ccc(F)cc1S(=O)(=O)NC1CCc2nnc(C)n2CC1` (stereo not drawn), the RP-LC retention time amounted to 613 s.

The compound `CC(C)c1ccc(NC(=O)Cn2nc(N3CCOCC3)c3ccccc3c2=O)cc1` gave an RP-LC retention time of 905 s.

Turning to `Cc1ccccc1-c1nnc(SCC(=O)N2CCC(C)CC2)o1`, the RP-LC retention time worked out at 1020 s.

For `COC(=O)c1c(NC2CCCC2)c2cccc(Cl)c2[nH]c1=O`, the RP-LC retention time worked out at 830 s.

In turn, `CC(=O)N1c2ccc(S(=O)(=O)N3CCCCC3)cc2CC1C(=O)NCCN1CCCCC1` (stereo not drawn) had an RP-LC retention time of 626 s.

Compound `COc1ccc(C2Cn3nnc(-c4nc(-c5ccc(OC(C)C)cc5)no4)c3CO2)cc1` (stereo not drawn) registered an RP-LC retention time of 1250 s.

As to `Cc1ccc(S(=O)(=O)N2CCCC(CCC(=O)N3CCOCC3)C2)cc1` (stereo not drawn), the RP-LC retention time turned out to be 814 s.

On to `CCc1ccc(NC(=O)C2CCN(S(=O)(=O)c3ccc4c(c3)S(=O)(=O)N=CN4)CC2)cc1`, for which the RP-LC retention time came out at 806 s.

As for `CN(C)S(=O)(=O)c1ccc2c(c1)N(CC(=O)NCc1ccccc1)C(=O)C1CCCCN21` (stereo not drawn), the RP-LC retention time came to 987 s.

As to `O=C(Cc1csc2nc(-c3cccc(Br)c3)cn12)NCCC1=CCCCC1`, the RP-LC retention time stood at 1050 s.

`O=S(=O)(c1ccc2c(c1)CCC2)N1CCC2(CC1)CC(Cc1nc(-c3cnccn3)no1)CCO2` (stereo not drawn) gave an RP-LC retention time of 1010 s.

`Cc1ccc(N2CC(c3nc(-c4cccc(-c5ccnn5C)c4)no3)CC2=O)cc1C` (stereo not drawn) gave an RP-LC retention time of 1010 s.

As to `CCN1CCC(N(Cc2cccs2)C(=O)Nc2ccc(C)cc2)CC1`, the RP-LC retention time came to 667 s.

In turn, `COc1ccc(-c2noc(-c3nnn4c3COC(c3ccc(C)cc3C)C4)n2)c(OC)c1` (stereo not drawn) yielded an RP-LC retention time of 1170 s.

`CNC(=O)c1cc2nc(N(C)C)n(-c3ccc(OC)cc3)c2s1`: the RP-LC retention time stood at 888 s.

In turn, `O=C(CN1C(=O)C2CCCCN2c2ccc(C(=O)N3CCCC3)cc21)NC1CCCCC1` (stereo not drawn) yielded an RP-LC retention time of 814 s.

The compound `COc1ccc(C(=O)N2CCN3CCS(=O)(=O)N(C4CC4)C(=O)C3C2)c(OC)c1` (stereo not drawn) had an RP-LC retention time of 711 s.

As for `CCCc1noc(-c2ccc(-n3cnc(C(=O)N4CCCC4)c3)nc2)n1`, the RP-LC retention time came out at 816 s.

Take `C=CCN1C(=O)COc2ccc(-c3nc(NC(=O)c4ccc(C)cc4)sc3C)cc21`: the RP-LC retention time was found to be 1100 s.

`COc1cc(CCNC(=O)c2c(N3CCCC3=O)c3cc(F)ccc3n2C)cc(OC)c1OC` showed an RP-LC retention time of 762 s.

`CCc1nn2c(CNC(=O)c3ccsc3)c(-c3ccccc3)nc2s1` gave an RP-LC retention time of 854 s.

Regarding `CSc1nnc(NC(=O)c2ccccc2Br)s1`, the RP-LC retention time was 737 s.

For `O=C(Cn1nc(S(=O)(=O)c2cccc(F)c2)ccc1=O)N1CCN(c2ccccc2)CC1`, the RP-LC retention time is 802 s.

In the case of `O=C(Nc1c(-c2ccc(F)cc2)nc2ccccn12)c1ccccc1F`, the RP-LC retention time is 639 s.

`CCOC(=O)c1c(C)c(C(=O)C(C)N(C(=O)c2ccc(Cl)cc2)C2CC2)c(C)n1CC` (stereo not drawn) showed an RP-LC retention time of 1140 s.

`Cc1nc(-c2cn(C(C)C)c3ncccc23)sc1C(=O)N1CCCCC1` had an RP-LC retention time of 958 s.

`Cc1sc(NC(=O)c2ccccc2F)nc1-c1ccc2c(c1)NC(=O)CO2` returned an RP-LC retention time of 878 s.
